# Measurements as given in BindingDB's records for doi:10.1080/14756360109162353 (Cardiff University, 2001).
# Several values for one entry are separate records, joined by “and”; a condition that tells them apart may be missing. Equal values may be shown once.
# Biological target: T1, 17-beta-hydroxysteroid dehydrogenase type 3 (Homo sapiens, UniProt P37058)
# T1 sequence (P37058 whole entry): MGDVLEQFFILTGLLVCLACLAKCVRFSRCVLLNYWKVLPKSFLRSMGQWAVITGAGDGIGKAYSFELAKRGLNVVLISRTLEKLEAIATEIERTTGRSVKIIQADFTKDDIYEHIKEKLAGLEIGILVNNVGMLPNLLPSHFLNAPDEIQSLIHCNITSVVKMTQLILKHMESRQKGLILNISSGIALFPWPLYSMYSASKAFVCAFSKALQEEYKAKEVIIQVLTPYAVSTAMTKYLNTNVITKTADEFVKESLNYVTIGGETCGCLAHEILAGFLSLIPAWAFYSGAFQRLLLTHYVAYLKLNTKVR
# Experiment: Inhibition Assay
# Conditions: pH 7.45; 37 °C
# Description: Inhibition assay of human testes mcrosomal 17 beta-hydroxysteroid dehydrogenase for the reduction of androstenedione.
row,SMILES,IC50
1,O=c1c(O)c(-c2cc(O)c(O)c(O)c2)oc2cc(O)cc(O)c12,100 µM
2,"O=c1c(O)c(-c2ccc(O)c(O)c2)oc2cc(O)ccc12 [2-(3,4-dihydroxyphenyl)-3,7-dihydroxy-chromen-4-one]",32.4 µM
3,"Oc1ccc(O)c(-c2ccccc2)c1 [2-Phenylhydroquinone, 7]",14.8 µM
4,"O=c1cc(-c2ccc(O)cc2)oc2cc(O)cc(O)c12 [Naringenin, 18]",21.3 µM and 16.4 µM

# Second part, the molecule after the results:
row,IC50,SMILES
1,76.2 µM,"CCN(CC)CCOc1ccc(/C(=C(\Cl)c2ccccc2)c2ccccc2)cc1 [2-[4-[(Z)-2-chloranyl-1,2-diphenyl-ethenyl]phenoxy]-N,N-diethyl-ethanamine;2-oxidanylpropane-1,2,3-tricarboxylic acid]"
2,5.7 µM,"O=C1C=CC(=O)C(c2ccccc2)=C1 [2-phenylcyclohexa-2,5-diene-1,4-dione]"
3,10.8 µM,"COc1ccc(-c2coc3cc(O)cc(O)c3c2=O)cc1 [5,7-dihydroxy-3-(4-methoxyphenyl)-4H-chromen-4-one]"
4,16.4 µM,O=c1cc(-c2ccccc2)oc2ccc(O)cc12 [6-hydroxy-2-phenyl-4H-chromen-4-one]
5,9.15 µM,"C#CCC1(C(=O)OC(=C(c2ccccc2)c2ccccc2)c2ccccc2)CC(=O)NC1=O (stereo not drawn) [17Beta-HSD Inhibitor, 3]"
6,30.3 µM,O=c1c(-c2ccc(O)cc2)coc2cc(O)cc(O)c12 [Prunetol]
